Experimental data taken from ChEMBL document CHEMBL3098125, “Synthesis, anti-HIV activity, integrase enzyme inhibition and molecular modeling of catechol, hydroquinone and quinol labdane analogs” (Bioorg Med Chem Lett, 2014).
Activity calls are given as the source filed them. The rule behind the calls is not given here.

Columns and labels:
[1] = Therapeutic index, ratio of CC50 for human TZM-bl cells to IC50 for HIV1 NL4.3 infected in human TZM-bl cells; type: cell-based; conditions: HIV1 NL4.3 infected TZM-bl cells, read-out: Ratio CC50/IC50
[2] = molecular target: Human immunodeficiency virus type 1 integrase (Human immunodeficiency virus 1) (UniProt Q7ZJM1); test: (§1) Inhibition of HIV1 integrase
[3] = molecular target: Human immunodeficiency virus type 1 integrase (Human immunodeficiency virus 1, UniProt Q7ZJM1); test: as §1
[4] = system: Human immunodeficiency virus 1; test: Antiviral activity against HIV1 NL4.3 infected in human TZM-bl cells expressing CXCR4-tropic incubated for 1 hr prior to infection measured after 48 hrs by luciferase reporter gene assay; type: functional, organism-based; conditions: Human immunodeficiency virus 1, NL4.3, TZM-bl
[5] = Cytotoxicity against human TZM-bl cells assessed as cell viability after 48 hrs by MTT assay; type: cell-based; conditions: for CC50 at 48 h: TZM-bl cells
[6] = system: Human immunodeficiency virus 1; test: Antiviral activity against HIV1 NL4.3 infected in human TZM-bl cells expressing CXCR4-tropic at 50 uM incubated for 1 hr prior to infection measured after 48 hrs by luciferase reporter gene assay; type: functional, organism-based

Chain of Human immunodeficiency virus type 1 integrase (Human immunodeficiency virus 1) (Q7ZJM1 as listed by the source): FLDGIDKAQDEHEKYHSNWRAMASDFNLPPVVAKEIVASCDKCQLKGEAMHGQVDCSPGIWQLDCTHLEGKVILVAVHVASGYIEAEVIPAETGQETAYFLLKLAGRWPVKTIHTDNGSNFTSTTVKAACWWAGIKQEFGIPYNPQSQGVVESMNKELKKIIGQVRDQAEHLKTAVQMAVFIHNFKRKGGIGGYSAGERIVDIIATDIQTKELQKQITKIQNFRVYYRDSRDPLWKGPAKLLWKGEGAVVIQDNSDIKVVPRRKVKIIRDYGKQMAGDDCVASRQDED
Chain of Human immunodeficiency virus type 1 integrase (Q7ZJM1 whole entry): as the sequence (Q7ZJM1 as listed by the source) above

SMILES	selectivity ratio [1]	inhibition [2]	IC50 [3] [µM]	IC50 ([4]; read-out: IC50) [µM]	IC50 ([4]; read-out: pIC50 (converted)) [µM]	CC50 at 48 h [5] [µM]	Activity [6]	CC50 ([5]; tzm, 48 h)
CC(C)=CCC1C(C)=CCc2c(O)ccc(O)c21 (stereo not drawn)	11	Dose-dependent effect	11.5	12.4	12.3	140		
CC(C)=CCCC1=CCc2ccc(O)c(O)c2C1	11	Dose-dependent effect	13.4	12.3	12.3	138		
COC(=O)C12C=CC(=O)C(O)=C1CC(CC/C=C(\C)C=O)=CC2 (stereo not drawn)	4			172	170	625		
COC(=O)C12C=CC(=O)C(O)=C1CC(CC/C=C(\C)CO)=CC2 (stereo not drawn)	1			285	282	383		
CC(C)=CCC1C(C)=CCc2c1ccc(O)c2O (stereo not drawn)	46	Dose-dependent effect	11.1	4.6	4.57	211		
C=C(C=O)[C@@H]1C[C@@]2(C)C(=CC1=O)[C@H](OC(=O)/C(C)=C/C(C)CCCC)CC[C@@H]2C(=O)O (stereo partly drawn)				10	10			
COC(=O)C12C=CC(=O)C(O)=C1CC=C(C)C2C/C=C(\C)CO (stereo not drawn)	13			72.7	72.4	928		
COC(=O)C12C=CC(=O)C(O)=C1CC=C(C)C2C/C=C(\C)C=O (stereo not drawn)	10			60.7	60.3	627		
COC(=O)C12C=CC(=O)C(OC(C)=O)=C1CC=C(C)C2CC=C(C)C (stereo not drawn)	18			36.7	36.3	677		
COC(=O)C12C=CC(=O)C(O)=C1CC(CCC=C(C)C)=CC2 (stereo not drawn)	4			171	170	693		
COC(=O)C12C=CC(=O)C(O)=C1CC=C(C)C2CC=C(C)C (stereo not drawn)	11			5	5.01	56.4		
Cc1nnc(C(=O)NC(C)(C)c2nc(C(=O)NCc3ccc(F)cc3)c(O)c(=O)n2C)o1				0.5	0.501	856		
CC(C)=CCCC1=CCc2c(O)ccc(O)c2C1							inactive	Not Active
